Measured values published in the NIST ThermoML archive (doi:10.1021/acs.jced.8b00537).

Test: xn = mol fraction of the nth substance listed
Details: 100 kPa, Liquid; for speed of sound: Frequency=3 MHz, Single path-length method; for mass density: Vibrating tube method; for viscosity: Capillary tube (Ostwald / Ubbelohde) method

O=S(=O)([N-]S(=O)(=O)C(F)(F)F)C(F)(F)F.On1cc[n+](O)c1 [1,3-dihydroxyimidazolium bis(trifluoromethylsulfonyl)imide] + CCCO
Details | mass density [kg/m3] | speed of sound [m/s] | viscosity [mPa·s]
318.15 K, x1 = 0.0999 | 1016 | – | –
318.15 K, x1 = 0.1994 | 1182 | – | –
318.15 K, x1 = 0.2993 | 1308 | – | –
318.15 K, x1 = 0.3992 | 1404 | – | –
318.15 K, x1 = 0.4985 | 1483 | – | –
318.15 K, x1 = 0.5999 | 1548 | 1118.5 | –
318.15 K, x1 = 0.6989 | 1603 | 1126.3 | –
318.15 K, x1 = 0.7996 | 1651 | 1133.7 | –
318.15 K, x1 = 0.8973 | 1690 | 1142.1 | –
318.15 K, x1 = 1 | 1717 | 1152.3 | –
323.15 K, x1 = 0.0999 | 1011 | 1106.4 | 3.072
323.15 K, x1 = 0.1994 | 1178 | 1097.4 | 4.675
323.15 K, x1 = 0.2993 | 1303 | 1093.6 | 7.234
323.15 K, x1 = 0.3992 | 1398 | 1097 | 11.09
323.15 K, x1 = 0.4985 | 1478 | 1101.6 | 15.11
323.15 K, x1 = 0.5999 | 1542 | 1107.6 | 19.34
323.15 K, x1 = 0.6989 | 1597 | 1115.5 | 25.89
323.15 K, x1 = 0.7996 | 1645 | 1123 | 29.52
323.15 K, x1 = 0.8973 | 1684 | 1131.4 | 39.97
323.15 K, x1 = 1 | 1711 | 1141.6 | 48.29
328.15 K, x1 = 0.0999 | 1006 | 1092.4 | 2.759
328.15 K, x1 = 0.1994 | 1173 | 1084.9 | 4.171
328.15 K, x1 = 0.2993 | 1298 | 1082 | 6.368
328.15 K, x1 = 0.3992 | 1393 | 1085.8 | 9.679
328.15 K, x1 = 0.4985 | 1472 | 1090.7 | 13.05
328.15 K, x1 = 0.5999 | 1537 | 1096.8 | 16.53
328.15 K, x1 = 0.6989 | 1592 | 1104.8 | 21.88
328.15 K, x1 = 0.7996 | 1640 | 1112.3 | 24.73
328.15 K, x1 = 0.8973 | 1679 | 1120.8 | 32.99
328.15 K, x1 = 1 | 1705 | 1131.1 | 39.57
333.15 K, x1 = 0.0999 | 1002 | 1078.5 | 2.491
333.15 K, x1 = 0.1994 | 1168 | 1072.4 | 3.742
333.15 K, x1 = 0.2993 | 1293 | 1070.4 | 5.644
333.15 K, x1 = 0.3992 | 1388 | 1074.7 | 8.509
333.15 K, x1 = 0.4985 | 1467 | 1080 | 11.37
333.15 K, x1 = 0.5999 | 1532 | 1086.1 | 14.29
333.15 K, x1 = 0.6989 | 1586 | 1094.2 | 18.68
333.15 K, x1 = 0.7996 | 1634 | 1101.8 | 20.94
333.15 K, x1 = 0.8973 | 1673 | 1110.3 | 27.57
333.15 K, x1 = 1 | 1700 | 1120.7 | 32.88
338.15 K, x1 = 0.0999 | 997 | 1064.5 | 2.255
338.15 K, x1 = 0.1994 | 1163 | 1060.1 | 3.375
338.15 K, x1 = 0.2993 | 1288 | 1059 | 5.034
338.15 K, x1 = 0.3992 | 1383 | 1063.7 | 7.522
338.15 K, x1 = 0.4985 | 1462 | 1069.3 | 9.989
338.15 K, x1 = 0.5999 | 1526 | 1075.6 | 12.46
338.15 K, x1 = 0.6989 | 1581 | 1083.8 | 16.12
338.15 K, x1 = 0.7996 | 1628 | 1091.5 | 17.87
338.15 K, x1 = 0.8973 | 1667 | 1100 | 23.34
338.15 K, x1 = 1 | 1694 | 1110.4 | 27.69
343.15 K, x1 = 0.0999 | 992 | 1050.7 | 2.051
343.15 K, x1 = 0.1994 | 1158 | 1048 | 3.057
343.15 K, x1 = 0.2993 | 1283 | 1047.8 | 4.514
343.15 K, x1 = 0.3992 | 1378 | 1052.8 | 6.692
343.15 K, x1 = 0.4985 | 1456 | 1058.9 | 8.831
343.15 K, x1 = 0.5999 | 1521 | 1065.1 | 10.95
343.15 K, x1 = 0.6989 | 1575 | 1073.5 | 14.03
343.15 K, x1 = 0.7996 | 1623 | 1081.2 | 15.41
343.15 K, x1 = 0.8973 | 1662 | 1089.8 | 19.94
343.15 K, x1 = 1 | 1688 | 1100.2 | 23.59
